Our source for the Km values is PMC3637054, “Comparison of activity indexes for recognizing enzyme mutants of higher activity with uricase as model” (Chemistry Central Journal, 2013).

The subject of the assay is T1, uricase of Asahi-Kasei.
T1 construct: gene urate oxidase; commercial diagnostic enzyme of Asahi-Kasei
As to the kind of experiment: UV absorbance at […] nm, initial rates, Lineweaver-Burk. The assay is classed as biochemical. Conditions: borate buffer, 25 °C.

As for `O=c1[nH]c(=O)c2[nH]c(=O)[nH]c2[nH]1` [uric acid], the Km was roughly 30 µM.

One may read the Km as the substrate concentration at which the rate is half of its maximum.
